Assay results published in patent US8981112B2, “Inhibitors of β-secretase” (Boehringer Ingelheim International GmbH, priority 2012, dated 2015).

What was measured:
[1] = molecular target: truncated human beta-secretase, BACE1 (amino acids 1-454) (Homo sapiens (Human), UniProt P56817); assay: BACE1 Assay (Assay 1), fluorescence quench assay; assay type: biochemical; settings: read-out: BACE1 IC50 nM (assay 1)
Experimental: The substrate was dissolved at 1 mg/ml in DMSO.
The assay was performed in the presence of OptiMEM (supernatant collected over 24 h and cleared from cellular debris by centrifugation) containing the ectodomain of BACE1, 25 μl water containing the desired 2-fold concentration of test compound and 2% DMSO, 1 μM substrate peptide, 20 mM NaOAc, pH 4.4, and 0.04% Triton-X100 in a total assay volume of 50 μl in a 384 well plate. In general, 25 μl of compound dilution were given to the plate followed by the addition of 10 μl of BACE1 containing OptiMEM™ diluted 1:10 in water with 0.2% Triton X-100. The reaction was started with the addition of 15 μl substrate in NaOAc buffer. The reaction was incubated at rt (dark) in an Envision® multilabel reader (Perkin Elmer) and the cleavage of the substrate was recorded as kinetic for 60 min at ex: 485 nm, em: 538 nm. Blank wells containing no enzyme were included on each plate.
The intensity of fluorescence was regressed against time in order to derive velocities of reaction in all 384 wells. These velocities were used for calculating percent control using an uninhibited control containing 1% DMSO as 100% and blank control performed in the absence of enzyme as 0%. IC50 values were calculated by fitting percent control vs. test compound concentration using Assay Explorer.

[2] = test system: brain amyloid peptides Aβ1-x; assay: Rat Brain Aβ Lowering Assay (Assay 5); assay type: in vivo; settings: 3 hrs after dosing
Experimental: Rat Brain Aβ Lowering Assay (Assay 5)
The animals were sacrificed 3 hrs after dosing, and brains were excised, dissected into cerebellum and left and right cerebra and flash-frozen in liquid nitrogen.
The cerebrum was homogenized (5 volumes per weight) in 20 mM Tris-HCL, pH 8.5, 0.2% Triton-X100 supplemented with protease inhibitors (complete, Roche Applied Science) at 4° C. using a glass Dounce homogenizer. The homogenate was centrifuged at 120,000×g for 60 min at 4° C., and the supernatant was collected and analyzed for Ab1-x using immunoassay with chemiluminescent detection (Meso-Scale Discovery, Rockville, Md. (MSD)).
Streptavidin 96-well plates (MSD) were pre-blocked with 5% Blocker A solution (MSD) for 1 hr at rt on an orbital shaker and washed 4 times with phosphate buffered saline (PBS). The wells were pre-coated with 20 ng/well of biotinylated antibody SIG-39155 (Clone M3.2, specific for amino acids 10-15 of the rodent Aβ) for 1 hr at rt and washed 4 times with PBS. For Aβ1-x analysis, 25 μl of either the cleared brain lysates or Aβ1-40 standards (8-500 pg/ml, with 2× increment) were incubated for 1 hr at rt with constant shaking. The wells were washed 4 times with PBS, and 25 μl of the detection antibody (Sulfo-TAG labeled anti-Aβ40 antibody supplied by MSD) was added and incubated for 1 hr at rt. After 4 washes with PBS, 150 μl of the chemiluminescence detection reagent (Read Buffer T, MSD) was added, and the plate was read on an MSD Sector Imager 6000 instrument. The calibration curve was fit into a non-linear four-parameter regression model, and the Aβ1-x concentrations were calculated for each well containing the cleared brain lysates. The percent of Aβ lowering was calculated based on the difference with the average Aβ concentration obtained for the brains from the animals treated with vehicle alone.

truncated human beta-secretase, BACE1 (amino acids 1-454), sequence (P56817 22-454): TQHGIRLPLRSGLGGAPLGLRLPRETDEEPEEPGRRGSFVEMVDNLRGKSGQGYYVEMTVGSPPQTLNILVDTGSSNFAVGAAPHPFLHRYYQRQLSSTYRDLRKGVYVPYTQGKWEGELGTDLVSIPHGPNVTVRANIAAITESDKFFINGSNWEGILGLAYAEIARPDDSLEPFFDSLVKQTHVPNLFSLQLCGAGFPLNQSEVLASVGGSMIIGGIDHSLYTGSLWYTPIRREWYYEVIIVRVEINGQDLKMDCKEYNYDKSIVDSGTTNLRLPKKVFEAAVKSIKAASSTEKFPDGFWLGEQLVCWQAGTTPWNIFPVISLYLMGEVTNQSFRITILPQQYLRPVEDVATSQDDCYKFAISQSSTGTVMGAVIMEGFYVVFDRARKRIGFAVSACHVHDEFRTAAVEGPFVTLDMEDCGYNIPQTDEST

Structure (SMILES) | IC50 [1] | % Aβ Reduction ([2]; single oral dose 25 mg/kg) | % Aβ Reduction ([2]; single oral dose 30 mg/kg) | % Aβ Reduction ([2]; single oral dose 12.5 mg/kg) | % Aβ Reduction ([2]; single oral dose 50 mg/kg)
CC[C@@H]1C[C@@]2(Cc3ccc(C#N)cc3[C@]23N=C(N)N(CC(C)(C)F)C3=O)C[C@H](C)[C@H]1OC [Example 26] | 9 nM | 71% |  |  | 
CC[C@@H]1C[C@]2(CC[C@H]1OC)Cc1ccc(C#N)cc1[C@]21N=C(N)N(CC2CCOCC2)C1=O [Example 2] | 8 nM |  | 42% |  | 
CO[C@H]1[C@H](C)C[C@@]2(Cc3ccc(C#N)cc3[C@]23N=C(N)N(C[C@H]2CCCO2)C3=O)C[C@@H]1C [Example 14] | 5 nM | 67% |  |  | 
CO[C@H]1[C@H](C)C[C@@]2(Cc3ccc(C#N)cc3[C@]23N=C(N)N(CC2COC2)C3=O)C[C@@H]1C [Example 13] | 9 nM |  | 47% |  | 
CO[C@H]1[C@H](C)C[C@@]2(Cc3ccc(C#N)cc3[C@]23N=C(N)N(C[C@@H]2COCCO2)C3=O)C[C@@H]1C [Example 21] | 5 nM |  |  |  | 59%
CC[C@@H]1C[C@]2(CC[C@H]1OC)Cc1ccc(C#N)cc1[C@]21N=C(N)N(CC2(F)CCOCC2)C1=O [Example 4] | 5 nM | 75% |  |  | 

The remaining compounds from weak to strong by IC50 [1], led by results:

IC50 [1] | Structure (SMILES) | % Aβ Reduction ([2]; single oral dose 25 mg/kg) | % Aβ Reduction ([2]; single oral dose 30 mg/kg) | % Aβ Reduction ([2]; single oral dose 12.5 mg/kg) | % Aβ Reduction ([2]; single oral dose 50 mg/kg)
14 nM | CO[C@H]1[C@H](C)C[C@@]2(Cc3ccc(C#N)cc3[C@]23N=C(N)N(CC(C)(C)F)C3=O)C[C@@H]1C [Example 17] | 70% |  |  | 
12 nM | CO[C@H]1[C@H](C)C[C@@]2(Cc3ccc(C#N)cc3[C@]23N=C(N)N(CC2(F)CCOCC2)C3=O)C[C@@H]1C [Example 23] | 68% |  |  | 
11 nM | CO[C@H]1[C@H](C)C[C@@]2(Cc3ccc(C#N)cc3[C@]23N=C(N)N(C[C@@H]2CCCO2)C3=O)C[C@@H]1C [Example 15] | 62% |  |  | 
9 nM | CO[C@H]1[C@H](C)C[C@@]2(Cc3ccc(C#N)cc3[C@]23N=C(N)N(C[C@@H]2CCO2)C3=O)C[C@@H]1C (stereo in doubt) [Example 18] | 56% |  |  | 
9 nM | CO[C@H]1CC[C@@]2(Cc3ccc(C#N)cc3[C@]23N=C(N)N(Cc2ccncn2)C3=O)C[C@@H]1C [Example 9] | 37% |  |  | 
8 nM | CO[C@H]1[C@H](C)C[C@@]2(Cc3ccc(C#N)cc3[C@]23N=C(N)N(C[C@H]2COCCO2)C3=O)C[C@@H]1C [Example 22] |  |  | 45% | 
5 nM | CO[C@H]1CC[C@@]2(Cc3ccc(C#N)cc3[C@]23N=C(N)N(CC2(C)COC2)C3=O)C[C@@H]1C [Example 8] | 37% |  |  | 
3 nM | CO[C@H]1[C@H](C)C[C@@]2(Cc3ccc(C#N)cc3[C@]23N=C(N)N(C2COC2)C3=O)C[C@@H]1C [Example 12] | 39% |  |  | 
